Experimental data published in patent publication US12180193B2, “Accelerating fibrosarcoma protein degrading compounds and associated methods of use” (Arvinas Operations, Inc., priority 2020, dated 2024).

Assays:
BRAF G466V = target: T1, BRAF G466V (Homo sapiens, UniProt P15056, G466V); assay: Cellular assay of target protein degradation, T-Rex 293 cells stably transfected with HA-BRAF G466V (HA immunofluorescence, high content imaging); assay type: cell-based; conditions: T-Rex 293 HA-BRAF G466V; for DC50: half maximal degradation, read-out: BRaf G466V DC50; for Dmax: maximum degradation observed
T1 construct: expressed in transfected cells
T1 sequence (P15056 whole entry G466V): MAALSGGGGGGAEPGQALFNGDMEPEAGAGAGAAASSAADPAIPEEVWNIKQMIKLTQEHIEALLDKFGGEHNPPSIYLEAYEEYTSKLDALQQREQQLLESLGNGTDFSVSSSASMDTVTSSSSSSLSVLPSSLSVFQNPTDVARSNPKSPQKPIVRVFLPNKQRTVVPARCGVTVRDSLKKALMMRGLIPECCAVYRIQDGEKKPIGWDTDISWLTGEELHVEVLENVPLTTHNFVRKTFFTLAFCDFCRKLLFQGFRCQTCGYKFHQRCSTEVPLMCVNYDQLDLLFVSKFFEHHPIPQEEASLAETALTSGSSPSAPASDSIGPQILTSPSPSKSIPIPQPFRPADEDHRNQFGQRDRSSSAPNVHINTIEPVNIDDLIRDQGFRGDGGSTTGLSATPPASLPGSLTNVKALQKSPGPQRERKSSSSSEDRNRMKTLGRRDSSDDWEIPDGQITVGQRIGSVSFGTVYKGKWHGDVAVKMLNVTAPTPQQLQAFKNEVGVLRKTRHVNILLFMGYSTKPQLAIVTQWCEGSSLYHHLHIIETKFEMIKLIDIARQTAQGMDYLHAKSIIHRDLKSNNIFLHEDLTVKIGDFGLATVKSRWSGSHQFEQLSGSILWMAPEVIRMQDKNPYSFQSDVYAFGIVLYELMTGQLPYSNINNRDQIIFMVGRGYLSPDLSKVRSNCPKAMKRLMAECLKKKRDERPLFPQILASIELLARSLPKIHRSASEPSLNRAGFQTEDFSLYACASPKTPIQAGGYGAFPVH
Summary of the method: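 24 h compound, 30 nM–3 pM final, 0.1% DMSO, 37° C; HA-BRAF G466V induced with 0.75 ng/mL doxycycline. PFA fix, Triton perm, anti-HA + Alexa fluor secondary, Hoechst/phalloidin counterstain; imaging. DC50, Dmax (% of control).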

BRAF V600E = target: T2, BRAF V600E (Homo sapiens, UniProt P15056, V600E); assay: Cellular assay of target protein degradation, T-Rex 293 cells stably transfected with HA-BRAF_V600E (HA immunofluorescence, high content imaging); assay type: cell-based; conditions: T-Rex 293 HA-BRAF V600E; for DC50: half maximal degradation, read-out: BRaf V600E DC50; for Dmax: maximum degradation observed
T2 construct: expressed in transfected cells
T2 sequence (P15056 whole entry V600E): as the sequence (P15056 whole entry G466V) above, with V466G, V600E counted along it
Summary of the method: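 24 h compound exposure, 1 μM–0.1 nM final, 0.1% DMSO, 37 °C; cells induced with 1 ng/mL doxycycline. PFA fix, Triton permeabilize, anti-HA overnight 4 °C, Hoechst/phalloidin counterstain. Output: DC50, Dmax as % control.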

Row | DC50 (BRAF G466V) | Dmax (BRAF G466V) | DC50 (BRAF V600E) | Dmax (BRAF V600E) | SMILES
1 | 1 to 10 nM | > 70% | 50 to 500 nM | 35 to 70% | COc1cc([C@H](O)CCN2CCN(c3ccc(-c4cnc5[nH]cc(C(=O)c6c(F)ccc(NS(=O)(=O)N7CC[C@@H](F)C7)c6F)c5c4)cc3)CC2)cc2c1C(=O)N([C@@H]1CCC(=O)NC1=O)C2 [Compound 187, (3R)-N-{3-[5-(4-{4-[(3R)-3-{2-[(3R)-2,6-dioxopiperidin-3-yl]-7-methoxy-1-oxo-2,3-dihydro-1H-isoindol-5-yl}-3-hydroxypropyl]piperazin-1-yl}phenyl)-1H-pyrrolo[2,3-b]pyridine-3-carbonyl]-2,4-difluorophenyl}-3-fluoropyrrolidine-1-sulfonamide]
2 | 1 to 10 nM | > 70% | < 5 nM | 35 to 70% | O=C1CCC(N2Cc3cc(C4CCN(CC5CCN(c6ccc(-c7cnc8[nH]cc(C(=O)c9c(F)ccc(NS(=O)(=O)N%10CCC(F)(F)C%10)c9F)c8c7)cc6)CC5)CC4)ccc3C2=O)C(=O)N1 (centres unmarked) [Compound 190, N-[3-(5-{4-[4-({4-[2-(2,6-dioxopiperidin-3-yl)-1-oxo-2,3-dihydro-1H-isoindol-5-yl]piperidin-1-yl}methyl)piperidin-1-yl]phenyl}-1H-pyrrolo[2,3-b]pyridine-3-carbonyl)-2,4-difluorophenyl]-3,3-difluoropyrrolidine-1-sulfonamide]
3 | < 1 nM | > 70% | 5 to 50 nM | 35 to 70% | CCN(C)S(=O)(=O)Nc1ccc(F)c(C(=O)c2c[nH]c3ncc(-c4ccc(N5CCC(CN6CCC(c7ccc8c(c7)CN(C7CCC(=O)NC7=O)C8=O)CC6)CC5)cc4)cc23)c1F (centres unmarked) [Compound 191, 3-(5-{1-[(1-{4-[3-(3-{[ethyl(methyl)sulfamoyl]amino}-2,6-difluorobenzoyl)-1H-pyrrolo[2,3-b]pyridin-5-yl]phenyl}piperidin-4-yl)methyl]piperidin-4-yl}-1-oxo-2,3-dihydro-1H-isoindol-2-yl)piperidine-2,6-dione]
4 | 1 to 10 nM | 35 to 70% | 5 to 50 nM | < 35% | O=C1CC[C@@H](NC(=O)c2cc(C3CCN(CC4CCN(c5ccc(-c6cnc7[nH]cc(C(=O)c8c(F)ccc(NS(=O)(=O)N9CC[C@@H](F)C9)c8F)c7c6)cc5)CC4)CC3)ccc2F)C(=O)N1 [Compound 197, 5-(1-{[1-(4-{3-[2,6-difluoro-3-({[(3R)-3-fluoropyrrolidin-1-yl]sulfonyl}amino)benzoyl]-1H-pyrrolo[2,3-b]pyridin-5-yl}phenyl)piperidin-4-yl]methyl}piperidin-4-yl)-N-[(3R)-2,6-dioxopiperidin-3-yl]-2-fluorobenzamide]

Second part, the compound before the results:

Row | SMILES | DC50 (BRAF G466V) | Dmax (BRAF G466V) | DC50 (BRAF V600E) | Dmax (BRAF V600E)
5 | O=C1CCC(N2Cc3cc(C4CCN(C[C@H]5C[C@H]6CC[C@@H](C5)N6c5ccc(-c6cnc7[nH]cc(C(=O)c8c(F)ccc(NS(=O)(=O)N9CC[C@@H](F)C9)c8F)c7c6)cc5)CC4)ccc3C2=O)C(=O)N1 (stereo partly drawn) [Compound 188, (3R)-N-[3-(5-{4-[(1R,3R,5S)-3-({4-[2-(2,6-dioxopiperidin-3-yl)-1-oxo-2,3-dihydro-1H-isoindol-5-yl]piperidin-1-yl}methyl)-8-azabicyclo[3.2.1]octan-8-yl]phenyl}-1H-pyrrolo[2,3-b]pyridine-3-carbonyl)-2,4-difluorophenyl]-3-fluoropyrrolidine-1-sulfonamide] | 1 to 10 nM | > 70% | 5 to 50 nM | 35 to 70%
6 | O=C1CCC(c2ccc(C3CCN(CC4CCN(c5ccc(-c6cnc7[nH]cc(C(=O)c8c(F)ccc(NS(=O)(=O)N9CC[C@@H](F)C9)c8F)c7c6)cc5)CC4)CC3)cc2)C(=O)N1 (stereo partly drawn) [Compound 189, (3R)-N-[3-(5-{4-[4-({4-[4-(2,6-dioxopiperidin-3-yl)phenyl]piperidin-1-yl}methyl)piperidin-1-yl]phenyl}-1H-pyrrolo[2,3-b]pyridine-3-carbonyl)-2,4-difluorophenyl]-3-fluoropyrrolidine-1-sulfonamide] | < 1 nM | 35 to 70% | 5 to 50 nM | 35 to 70%
7 | O=C1CCC(N2Cc3cc(N4CC(CN5CCN(Cc6ccc(-c7cnc8[nH]cc(C(=O)c9c(F)ccc(NS(=O)(=O)N%10CC[C@@H](F)C%10)c9F)c8c7)cc6)CC5)C4)ccc3C2=O)C(=O)N1 (stereo partly drawn) [Compound 192, (3R)-N-{3-[5-(4-{[4-({1-[2-(2,6-dioxopiperidin-3-yl)-1-oxo-2,3-dihydro-1H-isoindol-5-yl]azetidin-3-yl}methyl)piperazin-1-yl]methyl}phenyl)-1H-pyrrolo[2,3-b]pyridine-3-carbonyl]-2,4-difluorophenyl}-3-fluoropyrrolidine-1-sulfonamide] | 1 to 10 nM | > 70% | 5 to 50 nM | 35 to 70%
8 | O=C1CCC(N2Cc3cc(N4CC(CN5CCN(Cc6ncc(-c7cnc8[nH]cc(C(=O)c9c(F)ccc(NS(=O)(=O)N%10CC[C@@H](F)C%10)c9F)c8c7)cn6)CC5)C4)ccc3C2=O)C(=O)N1 (stereo partly drawn) [Compound 193, (3R)-N-{3-[5-(2-{[4-({1-[2-(2,6-dioxopiperidin-3-yl)-1-oxo-2,3-dihydro-1H-isoindol-5-yl]azetidin-3-yl}methyl)piperazin-1-yl]methyl}pyrimidin-5-yl)-1H-pyrrolo[2,3-b]pyridine-3-carbonyl]-2,4-difluorophenyl}-3-fluoropyrrolidine-1-sulfonamide] | 1 to 10 nM | 35 to 70% | 50 to 500 nM | 35 to 70%
9 | O=C1CCC(N2Cc3cc(N4CC(CN5CCC(Cc6ncc(-c7cnc8[nH]cc(C(=O)c9c(F)ccc(NS(=O)(=O)N%10CC[C@@H](F)C%10)c9F)c8c7)cn6)CC5)C4)ccc3C2=O)C(=O)N1 (stereo partly drawn) [Compound 194, (3R)-N-{3-[5-(2-{[1-({1-[2-(2,6-dioxopiperidin-3-yl)-1-oxo-2,3-dihydro-1H-isoindol-5-yl]azetidin-3-yl}methyl)piperidin-4-yl]methyl}pyrimidin-5-yl)-1H-pyrrolo[2,3-b]pyridine-3-carbonyl]-2,4-difluorophenyl}-3-fluoropyrrolidine-1-sulfonamide] | 1 to 10 nM | > 70% | 50 to 500 nM | 35 to 70%
10 | CN(CCN1CCN(c2ccc(-c3cnc4[nH]cc(C(=O)c5c(F)ccc(NS(=O)(=O)N6CC[C@@H](F)C6)c5F)c4c3)cc2)CC1)[C@H]1CC[C@H](Oc2ccc3c(c2)CN(C2CCC(=O)NC2=O)C3=O)CC1 (stereo partly drawn) [Compound 195, (3R)-N-[2,4-difluoro-3-(5-{4-[4-(2-{methyl[(1r,4r)-4-{[2-(2,6-dioxopiperidin-3-yl)-1-oxo-2,3-dihydro-1H-isoindol-5-yl]oxy}cyclohexyl]amino}ethyl)piperazin-1-yl]phenyl}-1H-pyrrolo[2,3-b]pyridine-3-carbonyl)phenyl]-3-fluoropyrrolidine-1-sulfonamide] | 1 to 10 nM | 35 to 70% | 5 to 50 nM | 35 to 70%
11 | O=C1CC[C@H](NC(=O)c2cc(C3CCN(CC4CCN(c5ccc(-c6cnc7[nH]cc(C(=O)c8c(F)ccc(NS(=O)(=O)N9CC[C@@H](F)C9)c8F)c7c6)cc5)CC4)CC3)ccc2F)C(=O)N1 [Compound 196, 5-(1-{[1-(4-{3-[2,6-difluoro-3-({[(3R)-3-fluoropyrrolidin-1-yl]sulfonyl}amino)benzoyl]-1H-pyrrolo[2,3-b]pyridin-5-yl}phenyl)piperidin-4-yl]methyl}piperidin-4-yl)-N-[(3S)-2,6-dioxopiperidin-3-yl]-2-fluorobenzamide] | 1 to 10 nM | 35 to 70% | 5 to 50 nM | 35 to 70%
